According to the NIST ThermoML archive (doi:10.1016/j.fluid.2018.02.009):

Conditions: Liquid, Closed cell (Static) method

O=C=O [carbon dioxide]
Conditions | vapor or sublimation pressure [kPa]
213.22 K | 410.4
223.15 K | 681.8
243.13 K | 1426.3
263.13 K | 2646.7
273.22 K | 3491.3
283.15 K | 4502.3
299.22 K | 6595
